Consider six compounds from ChEMBL document CHEMBL1201862, “PubChem BioAssay data set” (2004).

For experiment [1], the target named is Induced myeloid leukemia cell differentiation protein Mcl-1 (Homo sapiens, UniProt Q07820). The experiment is classed as functional.
The target in experiment [2] is Eukaryotic translation initiation factor 4E (Mus musculus, UniProt P63073). The experiment is described as follows: eIF4E–eIF4G protein interaction inhibitors, dose response, biochemical, TR-FRET (AID 855).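 Note: potency for disrupting eIF4E binding to eIF4GI seen as loss of FRET.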 The experiment is classed as functional. For orientation: Time-resolved FRET reads energy transfer from a long-lived donor to a nearby acceptor.
A further experiment addresses Procathepsin L (Homo sapiens, UniProt P07711).
Experiment [3] can be described thus: THP-1 cell cytotoxicity, dose response, cytotoxicity control for Vif-APOBEC3G degradation inhibitor project, THP-1 cells (AID 1117359). The experiment is classed as functional. The note with it: Human immunodeficiency virus 1, THP-1.
The target of experiment [4] is T1, Polyadenylate-binding protein 1 (Homo sapiens, UniProt P11940). Put plainly: PABP1 MLLE–PAM2 binding inhibitor potency, dose response, biochemical, fluorescence polarization, FITC-PAM2 peptide (AID 602259). As to conditions: read-out: IC50_Mean. Format: functional.
Experiment [5] has as its target T2, Runt-related transcription factor 1/Core-binding factor subunit beta (Homo sapiens, UniProt Q01196+Q13951). Put plainly: Confirmation of compounds inhibiting the binding between the RUNX1 Runt domain and CBFb-SMMHC via a time resolved fluorescence resonance energy transfer (TR-FRET) assay. [Related pubchem assays (depositor defined):AID1434, AID1438, AID1496, AID1560, AID1645]. Format: protein assay.

The target in experiment [6] is T2, Runt-related transcription factor 1/Core-binding factor subunit beta. Put plainly: Confirmation of compounds inhibiting the binding between the RUNX1 Runt domain and CBFb-SMMHC via a fluorescence resonance energy transfer (FRET) assay. [Related pubchem assays (depositor defined):AID1434, AID1438, AID1496, AID1550, AID1645]. Format: protein assay.
A further experiment addresses Aspartyl aminopeptidase (Plasmodium falciparum 3D7, UniProt Q8I2J3).
The target in experiment [7] is T3, Mannose-6-phosphate isomerase (Homo sapiens, UniProt P34949).
T3 sequence (P34949 whole entry): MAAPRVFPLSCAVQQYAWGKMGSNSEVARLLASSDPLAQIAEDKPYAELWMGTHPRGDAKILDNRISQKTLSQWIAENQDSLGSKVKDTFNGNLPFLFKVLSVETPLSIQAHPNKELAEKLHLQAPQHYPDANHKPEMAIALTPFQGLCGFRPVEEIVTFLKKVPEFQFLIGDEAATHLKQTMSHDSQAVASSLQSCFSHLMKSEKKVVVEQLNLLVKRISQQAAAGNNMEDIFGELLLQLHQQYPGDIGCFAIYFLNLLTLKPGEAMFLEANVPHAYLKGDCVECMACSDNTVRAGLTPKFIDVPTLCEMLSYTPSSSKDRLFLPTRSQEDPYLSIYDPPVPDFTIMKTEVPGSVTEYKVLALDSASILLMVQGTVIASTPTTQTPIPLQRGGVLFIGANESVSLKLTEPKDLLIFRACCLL
The experiment is described as follows: human PMI inhibitors, high substrate, primary screen, biochemical, fluorescence intensity, high mannose 6-phosphate (AID 1220).

Experiment [8] deals with Glucose-6-phosphate 1-dehydrogenase (Homo sapiens, UniProt P11413). The experiment is described as follows: human G6PD enzyme inhibitors, dose response, selectivity assay for P. falciparum G6PD inhibitor project, biochemical, fluorescence (AID 504792). Format: functional.
Experiment [9] concerns the target T1, Polyadenylate-binding protein 1. The experiment is described as follows: PABP1 MLLE–PAM2 interaction inhibitors, dose response, miRNA deadenylation inhibitor project, biochemical, fluorescence polarization, Cy5-PAM2 peptide, secondary (AID 602260). The note with it: read-out: IC50_Mean. Format: functional. (Fluorescence polarisation rises when a labelled molecule tumbles more slowly, as on binding a larger partner.)

For experiment [10], the target named is T2, Runt-related transcription factor 1/Core-binding factor subunit beta. The experiment is described as follows: inhibitors of RUNX1 Runt–CBFb-SMMHC binding, primary screen, biochemical, FRET, Cerulean-Runt, Venus-CBFb-SMMHC, uHTS (AID 1434).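 Note: partner is the CBFb-SMMHC leukemia fusion protein rather than wild-type CBFb.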 Format: protein assay.
Experiment [11] has as its target T4, Corticotropin-releasing factor receptor 2/Corticotropin-releasing factor-binding protein (Homo sapiens, UniProt P24387+Q13324).
T4 sequence (Q13324 whole entry): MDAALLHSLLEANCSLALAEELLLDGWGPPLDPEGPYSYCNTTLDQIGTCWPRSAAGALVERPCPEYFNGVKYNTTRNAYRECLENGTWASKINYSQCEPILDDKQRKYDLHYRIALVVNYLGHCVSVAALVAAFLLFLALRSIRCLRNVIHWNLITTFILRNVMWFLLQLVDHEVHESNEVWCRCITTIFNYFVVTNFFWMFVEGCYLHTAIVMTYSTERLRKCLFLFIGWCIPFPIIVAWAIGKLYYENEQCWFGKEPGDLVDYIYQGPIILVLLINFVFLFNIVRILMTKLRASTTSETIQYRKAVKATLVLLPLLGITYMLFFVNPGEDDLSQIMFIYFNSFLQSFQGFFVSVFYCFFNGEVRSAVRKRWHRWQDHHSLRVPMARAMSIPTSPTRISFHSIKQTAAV
T4 sequence (P24387 whole entry): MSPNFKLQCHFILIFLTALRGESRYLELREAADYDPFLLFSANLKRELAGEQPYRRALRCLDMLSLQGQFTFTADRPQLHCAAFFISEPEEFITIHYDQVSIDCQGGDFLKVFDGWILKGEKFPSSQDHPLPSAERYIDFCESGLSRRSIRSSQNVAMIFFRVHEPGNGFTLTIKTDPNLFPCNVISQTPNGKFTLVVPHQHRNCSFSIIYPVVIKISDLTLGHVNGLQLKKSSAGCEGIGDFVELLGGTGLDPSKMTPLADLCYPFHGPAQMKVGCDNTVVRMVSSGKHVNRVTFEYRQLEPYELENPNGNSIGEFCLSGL
The experiment is described as follows: activators of CRF receptor 2 with binding protein – uHTS hits, confirmation (AID 602473). Format: functional. The note with it: read-out: EC50_Mean.

The target in experiment [12] is T5, Coagulation factor XII (Homo sapiens, UniProt P00748).
T5 sequence (P00748 whole entry): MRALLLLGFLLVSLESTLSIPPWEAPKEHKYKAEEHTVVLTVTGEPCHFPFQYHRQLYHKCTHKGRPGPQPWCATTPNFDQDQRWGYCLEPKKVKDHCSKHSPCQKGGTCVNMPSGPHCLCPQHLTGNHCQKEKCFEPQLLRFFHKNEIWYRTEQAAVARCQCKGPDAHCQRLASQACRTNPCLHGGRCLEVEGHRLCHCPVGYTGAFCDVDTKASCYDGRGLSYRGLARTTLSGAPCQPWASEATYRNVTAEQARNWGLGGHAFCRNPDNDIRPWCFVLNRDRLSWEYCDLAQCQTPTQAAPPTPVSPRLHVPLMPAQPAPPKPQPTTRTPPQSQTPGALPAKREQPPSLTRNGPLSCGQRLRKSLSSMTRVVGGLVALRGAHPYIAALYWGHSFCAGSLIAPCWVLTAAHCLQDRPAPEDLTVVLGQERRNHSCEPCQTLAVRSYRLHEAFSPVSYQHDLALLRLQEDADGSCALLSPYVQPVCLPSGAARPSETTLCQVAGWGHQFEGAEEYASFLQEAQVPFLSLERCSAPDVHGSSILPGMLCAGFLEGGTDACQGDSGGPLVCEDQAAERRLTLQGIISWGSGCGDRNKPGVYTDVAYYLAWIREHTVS
Put plainly: Factor XIIa Dose Response Confirmation from Single Well HTS. [Related pubchem assays (depositor defined):AID701]. The experiment is classed as functional.

The next experiment deals with Troponin, cardiac muscle (Homo sapiens, UniProt P19429+P45379+P63316). The experiment is described as follows: Fluorescence-based biochemical high throughput dose response assay for activators of the calcium sensitivity of cardiac Regulated Thin Filaments (RTF). [Related pubchem assays (depositor defined):AID493008, AID493018, AID504382, AID504383]. The experiment is classed as protein-complex assay.

The target in experiment [13] is T5, Coagulation factor XII. The experiment is described as follows: FXIIa inhibitor potency, concentration-response, biochemical (AID 716). Format: functional.
Experiment [14] has as its target Voltage-dependent T-type calcium channel subunit alpha-1H (Homo sapiens, UniProt O95180). The experiment is described as follows: Cav3.2 T-type channel inhibitors, synthesized analogs, SAR follow-up, cell-based, synthetic library set 2, HEK293 HH8, Fluo-4 (AID 493023). The experiment is classed as functional.
For a further experiment, the target named is Mu-type opioid receptor (Homo sapiens, UniProt P35372). The experiment is described as follows: SAR Analysis of Antagonists of the MOR Receptor using an Image-Based Assay - Set 3. [Related pubchem assays (depositor defined):AID1777, AID1785, AID1786, AID1966, AID2133, AID2136, AID2284, AID2285, AID2420]. Format: functional.
The target of experiment [15] is Delta-type opioid receptor (Homo sapiens, UniProt P41143). Put plainly: SAR Analysis of Antagonists of the DOR Receptor using an Image-Based Assay - Set 3. [Related pubchem assays (depositor defined):AID1777, AID1785]. The experiment is classed as functional.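 Note: U2OS cells expressing DOR1 and beta-arrestin GFP stimulated with 100 nM SNC80; imaging of GFP-tagged beta-arrestin moving into spots after receptor activation.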
Experiment [16] addresses T6, Kappa-type opioid receptor (Homo sapiens, UniProt P41145). Put plainly: SAR analysis of Antagonists of the Kappa Opioid Receptor (KOR) using an Image-Based Assay - Set 3. [Related pubchem assays (depositor defined):AID1777, AID1785]. Format: functional.
For experiment [17], the target named is T6, Kappa-type opioid receptor. The experiment is described as follows: SAR analysis of small molecule antagonists of the kappa opioid receptor via a luminescent beta-arrestin assay - Set 3. [Related pubchem assays (depositor defined):AID1777, AID1778, AID1785, AID1786, AID1966, AID2133, AID2136, AID2285, AID2495]. The experiment is classed as functional.

Calls of active or inactive are those of the source. Bounds are passed on as bounds.

Take `CN1CCc2cccc3c2[C@@H]1Cc1ccc(O)c(O)c1-3`: the IC50 in experiment [1] is < 400 nM (active); in experiment [2] it was > 64 µM (inactive); against Procathepsin L, > 59.6 µM (not active); in experiment [4] it was > 66 µM (inactive); in [5], 17.8 µM (active); in experiment [6], 8.48 µM (active). For the same compound, the IC50 on Aspartyl aminopeptidase is 3.1 µM (active); in [7], 24.9 µM (active); in experiment [8], 38.4 µM (inactive); in experiment [9] it was > 66 µM (inactive); in experiment [10] it was 7.12 µM (active). For the same compound, the CC50 (usually the concentration at which the toxic effect on the cells reaches its halfway point) in experiment [3] was 15 µM (active).
In the case of `CCn1c(C)c(C(C)=O)c(N2CCN(c3ccccc3)CC2)nc1=S`, the EC50 in experiment [11] is > 53 µM (inactive). Besides, at Coagulation factor XII [12], the IC50 was > 50 µM (inactive).
Take `O=C(COc1ccccc1F)NC1CC1`: the EC50 at Troponin, cardiac muscle was > 71.5 µM (inactive).
With `NC(=O)Cn1cnc(-c2ccccc2)c1`, the IC50 at Coagulation factor XII [13] is > 50 µM (inactive).
Turning to `O=C(NC[C@@H]1[C@H]2CN(Cc3ccccc3)C[C@@H]12)c1cc(Cl)cc(Cl)c1`, the EC50 in experiment [14] is 1.5 µM (active).
Regarding `O=C(Cn1c(=O)c2cccn2c2cccnc21)NCCCN1CCOCC1`, the IC50 at Mu-type opioid receptor is > 32 µM (inactive); in experiment [15], > 32 µM (inactive); in experiment [16], > 32 µM (inactive); in experiment [17], > 20 µM (inactive).
